The values that follow come from PubChem BioAssay (NCI).

Some test systems named below: KM12 colon; PC-3 prostate; MCF7 breast; MDA-N; MALME-3M melanoma; SNB-19 CNS; OVCAR-4 ovarian; CCRF-CEM leukemia; HCT-116 colon; NCI-H522 lung; OVCAR-5 ovarian; SNB-75 CNS; SK-MEL-2 melanoma.
Holding throughout (assay): NCI anticancer screen, dose series, 48 h

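Exposure lasted 48 hours, with cells grown in 96-well plates and compounds tested at five concentrations. The concentration for full growth arrest is given as TGI.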

As to `CCC1(O)C=CC(=O)C=C1`, the TGI in the test with KM12 colon was 33.5 µM; in the test with PC-3 prostate, more than 62.2 µM; in the test on MCF7 breast, more than 100 µM; in the test with MDA-N it was more than 100 µM; in the test with MALME-3M melanoma, 28.2 µM; in the test on SNB-19 CNS, 39.2 µM. In addition, the TGI was more than 100 µM with OVCAR-4 ovarian; more than 100 µM in the test on CCRF-CEM leukemia; more than 100 µM in the test on HCT-116 colon; 24.7 µM with NCI-H522 lung; more than 100 µM with OVCAR-5 ovarian; more than 96.1 µM with SNB-75 CNS. The same molecule displayed a TGI with SK-MEL-2 melanoma of more than 100 µM.
Regarding `Cc1c(C)c(C)c(-n2c(=O)n(C)c(=O)n2C(C)(C)C)c(C)c1C`, the TGI in the test on KM12 colon, with PC-3 prostate, with MCF7 breast, in the test on MDA-N, with SNB-19 CNS and in the test with OVCAR-4 ovarian was more than 100 µM in each case. Further, the TGI in the test with CCRF-CEM leukemia, in the test on HCT-116 colon, in the test with OVCAR-5 ovarian, in the test with SNB-75 CNS and in the test on SK-MEL-2 melanoma was more than 100 µM in each case.
As for `COc1c(C2(c3ccc(F)cc3)SCCCS2)c(=O)c1=O`, the TGI with KM12 colon, in the test with PC-3 prostate, in the test with MCF7 breast, in the test with MDA-N, with MALME-3M melanoma and with SNB-19 CNS was more than 100 µM each time. For the same molecule, the TGI in the test with OVCAR-4 ovarian, with CCRF-CEM leukemia, with HCT-116 colon, with OVCAR-5 ovarian, in the test with SNB-75 CNS and in the test with SK-MEL-2 melanoma was more than 100 µM each time.
Regarding `CCOC(=O)c1cc2cc(Cc3ccc4[nH]c(C(=O)OCC)cc4c3)ccc2[nH]1`, the TGI in the test with KM12 colon was more than 100 µM; in the test with PC-3 prostate it was more than 100 µM; with MCF7 breast it was more than 100 µM; with MDA-N, more than 100 µM; in the test with MALME-3M melanoma, more than 100 µM; with SNB-19 CNS, 30.6 µM. Besides, the TGI in the test with OVCAR-4 ovarian was 21.4 µM; in the test on CCRF-CEM leukemia, more than 100 µM; with HCT-116 colon, more than 100 µM; with OVCAR-5 ovarian, more than 100 µM; in the test with SNB-75 CNS, 27.9 µM; in the test on SK-MEL-2 melanoma, 81.1 µM.
For `N#Cc1c(-c2ccco2)c2c(n(C3OC(CO)C(O)C(O)C3O)c1=S)CCCC2` (stereo not given), the TGI in the test on KM12 colon, with PC-3 prostate, in the test with MCF7 breast, with MDA-N, in the test with MALME-3M melanoma and in the test with OVCAR-4 ovarian was more than 100 µM throughout. The TGI was more than 100 µM in the test with CCRF-CEM leukemia; more than 100 µM in the test on HCT-116 colon; more than 100 µM with NCI-H522 lung; more than 100 µM with OVCAR-5 ovarian; 0.0981 µM in the test on SNB-75 CNS; more than 100 µM in the test on SK-MEL-2 melanoma.
Consider `Oc1c(OCc2nnc(CCCCCCCCc3nnc(COc4ccc5ccccc5c4O)n3Nc3ccccc3)n2Nc2ccccc2)ccc2ccccc12`, for which the TGI in the test on KM12 colon was 19 µM; in the test on PC-3 prostate, 19.2 µM; in the test on MCF7 breast, 68.1 µM; in the test with MDA-N, 12.8 µM; with MALME-3M melanoma, 28.8 µM; with SNB-19 CNS, 29.8 µM. Further, the TGI was determined as 20.7 µM in the test on OVCAR-4 ovarian; 24.8 µM with HCT-116 colon; 27.3 µM in the test on NCI-H522 lung; 28.5 µM in the test with OVCAR-5 ovarian; 35.5 µM with SNB-75 CNS; 27.6 µM in the test on SK-MEL-2 melanoma.
Regarding `CCCCCCCCCCCCNC(=O)NCC(OCC)OCC`, the TGI in the test with KM12 colon, with PC-3 prostate, in the test with MCF7 breast, with MDA-N, in the test on SNB-19 CNS and in the test with OVCAR-4 ovarian was more than 10 µM in each case. For the same molecule, the TGI in the test on CCRF-CEM leukemia, in the test with HCT-116 colon, in the test on NCI-H522 lung, with OVCAR-5 ovarian, with SNB-75 CNS and with SK-MEL-2 melanoma was more than 10 µM throughout.
Take `COC(=O)OC[C@H]1O[C@@H](n2cc(C)c(=O)[nH]c2=O)CC1OC(=O)OC` (stereo not given in full): the TGI in the test with KM12 colon, in the test on PC-3 prostate, in the test on MCF7 breast, in the test with MDA-N, in the test with MALME-3M melanoma and in the test on SNB-19 CNS was more than 100 µM throughout. The TGI in the test on OVCAR-4 ovarian, in the test on CCRF-CEM leukemia, in the test with NCI-H522 lung, in the test with OVCAR-5 ovarian, in the test with SNB-75 CNS and in the test with SK-MEL-2 melanoma was more than 100 µM each time.
Take `COc1ccc(-c2nc3ncccn3c2-c2ccc(S(C)=O)cc2)cc1` (stereo not given): the TGI in the test on KM12 colon, in the test on PC-3 prostate, in the test with MCF7 breast, in the test with MDA-N, in the test with SNB-19 CNS and in the test on OVCAR-4 ovarian was more than 100 µM in each case. The TGI with CCRF-CEM leukemia, with HCT-116 colon, with OVCAR-5 ovarian, in the test on SNB-75 CNS and in the test with SK-MEL-2 melanoma was more than 100 µM each time.
In the case of `Cc1c2c(n3c(nc4ccccc43)c1C#N)N(c1ccc(Cl)cc1)CC2`, the TGI in the test on PC-3 prostate, in the test with MCF7 breast, with MDA-N, in the test on MALME-3M melanoma, with SNB-19 CNS and with OVCAR-4 ovarian was more than 100 µM in each case. Further, the TGI in the test on CCRF-CEM leukemia, in the test with HCT-116 colon, in the test with NCI-H522 lung, with OVCAR-5 ovarian, in the test with SNB-75 CNS and with SK-MEL-2 melanoma was more than 100 µM throughout.
Regarding `COc1c2cc(C(C)(C)C)cc1CSCc1cc(C(C)(C)C)cc(c1OC)CCCCC2`, the TGI in the test on KM12 colon, in the test on PC-3 prostate, in the test on MCF7 breast, with MDA-N, in the test with MALME-3M melanoma and with SNB-19 CNS was more than 50 µM throughout. The TGI with CCRF-CEM leukemia, in the test with HCT-116 colon, in the test on OVCAR-5 ovarian, in the test with SNB-75 CNS and in the test on SK-MEL-2 melanoma was more than 50 µM each time.
